Test results: patent US12459931B2, “Benzothiophene derivative regulator, preparation method therefor and use thereof” (Shanghai Hansoh Biomedical Co., Ltd., priority 2019, dated 2025)
Read-outs that look alike come from different tables or passages of the source.

What was measured:
[1] = Pharmacokinetic assay in Balb/c mice (plasma and brain tissue); type: in vivo; settings: p.o. 5 mg/kg; for AUC(0-t) / AUC(0-inf) / Cmax / MRT / half-life: male, Balb/c, mouse, po; for AUC(0-t): read-out: Area under curve AUC0-t; for AUC(0-inf): read-out: Area under curve AUC0-∞; for Cmax: read-out: Plasma concentration Cmax; for MRT: read-out: Average residence time MRT; for half-life: read-out: Half life t1/2 (converted)
Method: III. Pharmacokinetic Assay in Balb/c Mice
Balb/c mice were used as test animals. The pharmacokinetic behavior of the compounds of Examples of the present invention was studied in mouse body (plasma and brain tissue) by orally administration at a dose of 5 mg/kg.
Male Balb/c mice (12 mice per group), purchased from Shanghai Jiesijie Laboratory Animal Co., LTD, with Certificate No.: SCXK (Shanghai) 2013-0006 N0.311620400001794. • 2.3 Formulation of the preparation: […]
The test compound was dissolved in 0.5% CMC-Na (1% Tween80) by sonication to formulate a clear solution or homogeneous suspension. • 2.4 Administration:
After an overnight fast, male Balb/c mice (12 mice per group) were administered p.o. with the test compound at a dose of 5 mg/kg and a volume of 10 mL/kg. • 2.5 Sample collection:
0.2 mL of blood was taken from the heart of the mouse before administration and at 1, 2, 4, 8 and 24 hours after administration, and the mice were sacrificed with CO2. The samples were stored in EDTA-K2 tubes, and centrifuged for 6 minutes at 4° C., 6000 rpm to separate the plasma. The plasma samples were stored at −80° C. Whole brain tissue was taken out, weighed, placed in a 2 mL centrifuge tube, and stored at −80° C. • 2.6 Sample process:
1) 160 μL of acetonitrile was added to 40 μL of the plasma sample for precipitation, and then the mixture was centrifuged at 3500×g for 5 to 20 minutes.
2) 90 μL of acetonitrile containing internal standard (100 ng/mL) was added to 30 μL of the plasma and brain homogenate sample for precipitation, and then the mixture was centrifuged at 13000 rpm for 8 minutes.
3) 70 μL of water was added to 70 μL of the treated supernatant and mixed by vortex for 10 minutes. 20 μL of the solution was taken to analyze the concentration of the test compound by LC/MS/MS. LC/MS/MS analytical instrument: AB Sciex API 4000 Qtrap. • 2.7 Liquid chromatography analysis: • Liquid chromatography condition: Shimadzu LC-20AD pump • Chromatographic column: Agilent ZORBAX XDB-C18 (50×2.1 mm, 3.5 μm); Mobile phase: Eluent A was 0.1% formic acid in water, and Eluent B was acetonitrile • Flow rate: 0.4 mL/min • Elution time: 0-4.0 minutes the eluent is as follows:
The main parameters of pharmacokinetics were calculated by WinNonlin 6.1.

[2] = molecular target: Human Dopamine D3 Receptor (Homo sapiens (Human), UniProt P35462); experiment: Radioligand-receptor binding assay, dopamine D3 receptor ([3H]-methylspiperone); settings: [3H]-methylspiperone 0.5 nM, human D3 receptor membrane
Sequence of Human Dopamine D3 Receptor (P35462 whole entry): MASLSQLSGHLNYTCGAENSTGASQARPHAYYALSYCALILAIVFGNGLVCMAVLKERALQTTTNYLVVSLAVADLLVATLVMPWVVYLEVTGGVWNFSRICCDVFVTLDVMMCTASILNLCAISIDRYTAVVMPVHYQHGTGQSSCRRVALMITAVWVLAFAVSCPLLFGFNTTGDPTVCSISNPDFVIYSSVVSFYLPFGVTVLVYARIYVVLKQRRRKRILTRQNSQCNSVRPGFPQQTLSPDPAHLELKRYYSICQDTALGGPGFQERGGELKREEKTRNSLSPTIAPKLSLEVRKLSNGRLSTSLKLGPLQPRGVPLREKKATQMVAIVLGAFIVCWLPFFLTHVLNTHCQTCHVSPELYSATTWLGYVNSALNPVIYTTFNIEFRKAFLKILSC
Method: Determination of the Binding Ability of the Compounds of the Present Invention to Dopamine D3 Receptor
The objective of this test example is to determine the affinity of the compounds for dopamine D3 receptor.
Assay buffer: 50 mM Tris-HCl pH 7.4, 10 mM MgCl2; wash solution: 50 mM Tris-HCl pH 7.4, stored at 4° C.; 0.5% PEI solution: 0.5 g PEI dissolve in 100 mL ddH2O, 4° C. storage of spare.
(§1) 5 μL of the test compounds (0.005 nM to 100 nM, 10 concentrations in total) and 100 μL of buffer were added to a 96-well assay plate. 1 μL of cell membrane and 300 μL of buffer were added to each well, and the plate was shaken at 600 rpm for 5 min. A mixed solution of 100 μL of buffer and [^3H]-methylspiperone (the final concentration was 0.5 nM) was added to each well. The plate was shaken at 600 rpm for 5 min, and incubated at 27° C. for 30 min. The […]-96 GF/B filter plate pre-incubated with 0.5% PEI for 1 h was washed twice with the buffer (1 mL/well). The cell membrane suspension was added to the […]-96 GF/B filter plate, washed 4 times, and incubated at 55° C. for 10 min. 40 μL of ULTIMA GOLD was added to each well, and liquid scintillation counting was carried out.
(§2) The CPM (Counts per minute) values were determined by TopCount. […] The 10 concentrations of the compound were from 100 nM to 0.005 nM after 3-fold dilution of the reaction system. The percent inhibition rate and ten-point concentration data were fitted to the parametric nonlinear logistic equation by using GraphPad prism to calculate the IC50 values of the compound.

5-HT2A receptor = 5-HT2A receptor (Homo sapiens (Human), UniProt P28223); experiment: Radioligand-receptor binding assay, 5-HT2A receptor ([3H]-Ketanserin); settings: [3H]-Ketanserin 2 nM, human 5-HT2A receptor membrane; read-out: 5HT-2A binding activity IC50
Sequence of 5-HT2A receptor (P28223 whole entry): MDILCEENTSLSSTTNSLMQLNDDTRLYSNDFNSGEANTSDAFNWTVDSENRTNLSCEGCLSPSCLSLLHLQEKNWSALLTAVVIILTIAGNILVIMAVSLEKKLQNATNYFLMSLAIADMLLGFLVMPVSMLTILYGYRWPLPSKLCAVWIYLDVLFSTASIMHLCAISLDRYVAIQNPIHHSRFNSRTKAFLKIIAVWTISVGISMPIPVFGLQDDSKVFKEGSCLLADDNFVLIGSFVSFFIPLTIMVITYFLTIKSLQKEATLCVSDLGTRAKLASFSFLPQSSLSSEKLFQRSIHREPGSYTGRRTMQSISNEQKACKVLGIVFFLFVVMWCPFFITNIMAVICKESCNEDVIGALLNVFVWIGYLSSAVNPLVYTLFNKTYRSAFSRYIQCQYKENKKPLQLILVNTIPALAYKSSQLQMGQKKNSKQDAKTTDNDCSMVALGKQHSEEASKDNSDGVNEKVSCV
Method: Determination of the Binding Ability of the Compounds of the Present Invention to 5-HT2A Receptor
The objective of this test example is to determine the affinity of the compounds for 5-HT2A receptor.
Assay buffer: 50 mM Tris-HCl pH 7.4, 4 mM CaCl2); wash solution: 50 mM Tris-HCl pH 7.4, stored at 4° C.; 0.5% PEI solution: 0.5 g PEI dissolve in 100 mL ddH2O, 4° C. storage of spare.
as §1, with “plate. 1.5” for “plate. 1”, “300 L” for “300 μL”, “each well. The” for “each well, and the”, “and [^3H]-Ketanserin” for “and [^3H]-methylspiperone”, “was 2” for “was 0.5”
as §2

| Structure (SMILES) | Peak time tmax ([1]; Brain) | Peak time tmax ([1]; Plasma) | AUC(0-t) ([1]; Brain) | AUC(0-inf) ([1]; Brain) | Cmax ([1]; Brain) | AUC(0-t) ([1]; Plasma) | AUC(0-inf) ([1]; Plasma) | MRT ([1]; Plasma) | half-life ([1]; Plasma) | Cmax ([1]; Plasma) | IC50 [2] | IC50 (5-HT2A receptor) |
| --- | --- | --- | --- | --- | --- | --- | --- | --- | --- | --- | --- | --- |
| CC(C)(O)C(=O)N[C@H]1CC[C@H](CCN2CCN(c3cccc4sccc34)CC2)CC1 [Example 41, N-(Trans-4-(2-(4-(benzo[b]thiophen-4-yl)piperazin-1-yl)ethyl)cyclohexyl)-2-hydroxy-2-methylpropanamide] | 1 h | 1 h | 8120 ng·h/mL | 13000 ng·h/mL | 731 ng/mL | 5210 ng·h/mL | 6370 ng·h/mL | 13.5 h | 10.2 h | 452 ng/mL | 1030 pM | 430 pM |
| O=C(N[C@H]1CC[C@H](CCN2CCN(c3cccc4sccc34)CC2)CC1)C1(O)CC1 [Example 42, N-(Trans-4-(2-(4-(benzo[b]thiophen-4-yl)piperazin-1-yl)ethyl)cyclohexyl)-1-hydroxycyclopropane-1-carboxamide] | 1 h | 1 h | 3610 ng·h/mL | 3890 ng·h/mL | 330 ng/mL | 4240 ng·h/mL | 4370 ng·h/mL | 6.84 h | 4.84 h | 477 ng/mL | 200 pM | 260 pM |
